SMILES strings stand for the structures.

One may read the melting point as the temperature of the solid-liquid transition.

Data set [1] has as its system Aβ42. The conditions noted are these: according to table 3 of WO 01/78721; cited from earlier work.

Compound `CN1C(=O)C(C(=O)Nc2ccc(Cl)cc2)c2ccc3c(c2S1(=O)=O)CCCC3` (centres unmarked) [Example 13, 3,4,7,8,9,10-Hexahydro-2-methyl-3-oxo-2H-naphtho[2,1-e]-1,2-thiazine-4-(4-chloro)carboxanilide 1,1-dioxide] showed a melting point of 106 to 108 °C. On the same count and under the same terms, the same measure for `O=C(Nc1ccccc1C(F)(F)F)C1C(=O)N(Cc2ccc(F)cc2)S(=O)(=O)c2ccc(Cl)cc21` (centres unmarked) [Example 14, 6-Chloro-3,4-dihydro-2-(4-fluorobenzyl)-3-oxo-2H-1,2-benzothiazine-4-(2-trifluoromethyl)carboxanilide 1,1-dioxide]: 198 to 199 °C; for `O=C(Nc1cccc(C(F)(F)F)c1)C1C(=O)N(Cc2ccc(F)cc2)S(=O)(=O)c2ccc(Cl)cc21` (centres unmarked) [Example 15, 6-Chloro-3,4-dihydro-2-(4-fluorobenzyl)-3-oxo-2H-1,2-benzothiazine-4-(3-trifluoromethyl)carboxanilide 1,1-dioxide]: 183 to 184 °C. As for `Cc1cc(NC(=O)C2=C(O)c3ccccc3S(=O)(=O)N2C)no1` [isoxicam], the Aβ42 level entry in data set [1] is given as “do not lower or even increase the Aβ42 level”. As to `CN1C(C(=O)Nc2ccccn2)=C(O)c2ccccc2S1(=O)=O` [piroxicam], the Aβ42 level entry in data set [1] is “do not lower or even increase the Aβ42 level”.

The record behind these values is patent publication US7375220B2, “Method of treating diseases and conditions associated with an altered level of amyloid β peptides and new enolcarboxamide compounds” (Boehringer Ingelheim Vetmedica GmbH, priority 2004, dated 2008).
